Reference: patent publication US10138490B2, “Transformed plants tolerant to herbicides due to overexpression of prephenate dehydrogenase and p-hydroxyphenylpyruvate dioxygenase” (priority 2002, dated 2018)

What was measured:
Assay type in all cases: in vivo
[1] = system: ARA9-PDH tobacco lines (overexpressing PDH and HPPD); test: Tolerance to HPPD inhibitors: sowing on increasing concentrations of DKN, doubly transformed lines
Excerpt: (§1) The tolerance of the transformed plants is studied by sowing on a soil treated with diketonitrile (DKN).
(§2) 13 ARA9-PDH lines and the PBD6-ARA9 line that was used as starting material for the transformation were sown on increasing concentrations of DKN:5, 10 and 32 ppm.

[2] = system: PBD6-ARA9 tobacco line (overexpressing A. thaliana HPPD); test: Tolerance to HPPD inhibitors: sowing on increasing concentrations of DKN, parental line
Excerpt: as §1, §2

[3] = system: wild-type tobacco line of the Petit Havana type; test: Tolerance to sulcotrione and to mesotrione, wild-type line
ARA9-PDH18 tobacco line = test: Tolerance to sulcotrione and to mesotrione, ARA9-PDH18 line
Method: as §2
The same experiment was carried out with the HPPD inhibitors sulcotrione and mesotrione.

For `CS(=O)(=O)c1cc(C(F)(F)F)ccc1C(=O)C(C#N)C(=O)C1CC1` (centres unmarked) [DKN], the “response of lines sown on DKN” value ([1]; 5 ppm DKN, all 13 ARA9-PDH lines) was “resistant”, the “response of line sown on DKN” value ([1]; 10 ppm DKN, ARA9-PDH4 line) was “inhibited” and the “response of lines sown on DKN” value ([1]; 10 ppm DKN, all ARA9-PDH lines except ARA9-PDH4) was “resist well”. For the same compound, the “response of lines sown on DKN” value ([1]; 32 ppm DKN, ARA9-PDH lines that were resistant to 10 ppm) was “resistant and grow normally”, the “response of line sown on DKN” value ([2]; 5 ppm DKN) was “resistant” and the “response of line sown on DKN” value ([2]; 10 ppm DKN) was “completely inhibited”. For the same compound, the “response of line sown on DKN” value ([2]; 32 ppm DKN) was “completely inhibited”.

With `CS(=O)(=O)c1ccc(C(=O)C2C(=O)CCCC2=O)c([N+](=O)[O-])c1` [mesotrione] the “concentration of HPPD inhibitor the line is sensitive to” value [3] was 0.375 µM and the “concentration of HPPD inhibitor the line is tolerant to” value (ARA9-PDH18 tobacco line) was 3 µM.

For `CS(=O)(=O)c1ccc(C(=O)C2C(=O)CCCC2=O)c(Cl)c1` [sulcotrione], the “concentration of HPPD inhibitor the line is sensitive to” value [3] was 0.375 µM and the “concentration of HPPD inhibitor the line is tolerant to” value (ARA9-PDH18 tobacco line) was 6 µM.
